Results from US20230365571A1, “COMPOUNDS AND COMPOSITIONS AS Sppl2a INHIBITORS” (Novartis AG, priority 2020, published 2023).

Legend:
Format in all cases: cell-based
human SPPL2a [1] = biological target: T1, human SPPL2a (Homo sapiens, UniProt Q8TCT8); test: Sppl2a TL (translocation) imaging assay in U-2 OS cells; parameters: expressed in transfected cells; details: U-2 OS cells expressing human SPPL2a and EGFP-TNFα(aa1-76) NTF substrate; 24 h
T1 sequence (Q8TCT8 26-520): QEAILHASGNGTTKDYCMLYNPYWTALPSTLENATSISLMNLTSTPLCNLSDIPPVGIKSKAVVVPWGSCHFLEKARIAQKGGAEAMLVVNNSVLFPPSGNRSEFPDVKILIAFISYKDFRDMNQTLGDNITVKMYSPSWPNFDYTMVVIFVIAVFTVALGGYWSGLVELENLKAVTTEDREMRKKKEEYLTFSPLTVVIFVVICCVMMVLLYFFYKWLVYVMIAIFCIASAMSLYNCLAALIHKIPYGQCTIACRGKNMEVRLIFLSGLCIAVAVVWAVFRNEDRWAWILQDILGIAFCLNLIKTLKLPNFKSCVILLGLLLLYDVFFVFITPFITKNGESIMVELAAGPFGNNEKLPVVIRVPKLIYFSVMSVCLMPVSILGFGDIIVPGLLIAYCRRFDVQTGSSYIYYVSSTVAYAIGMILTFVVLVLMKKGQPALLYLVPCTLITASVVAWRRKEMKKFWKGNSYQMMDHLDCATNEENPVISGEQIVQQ
How it was run: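 U-2 OS cells stably expressing human SPPL2a plus doxycycline-induced EGFP-TNFα(aa1-76) NTF, treated 24 h at 37 °C with inhibitor (100 μM–1 nM, 11 points, 0.9% DMSO, 5 μg/mL doxycycline). Imaging of nuclear-minus-cytoplasmic EGFP intensity; % inhibition versus 0.5 μM LY-411,575 and DMSO, IC50 by nonlinear regression; CC50 from cell count.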

Sppl2a CD74 = biological target: T2, Sppl2a CD74 (Mus musculus, UniProt Q9JJF9); test: CD74/p8 mouse whole blood assay, flow cytometry format; details: Balb/c mouse whole blood, 5 h, CD74 signal on gated live B cells
T2 construct: Mouse whole blood Balb/c mice (sodium citrate) was ordered by Bioreclamation LLC; tissue Bioreclamation LLC
T2 sequence (Q9JJF9 26-523): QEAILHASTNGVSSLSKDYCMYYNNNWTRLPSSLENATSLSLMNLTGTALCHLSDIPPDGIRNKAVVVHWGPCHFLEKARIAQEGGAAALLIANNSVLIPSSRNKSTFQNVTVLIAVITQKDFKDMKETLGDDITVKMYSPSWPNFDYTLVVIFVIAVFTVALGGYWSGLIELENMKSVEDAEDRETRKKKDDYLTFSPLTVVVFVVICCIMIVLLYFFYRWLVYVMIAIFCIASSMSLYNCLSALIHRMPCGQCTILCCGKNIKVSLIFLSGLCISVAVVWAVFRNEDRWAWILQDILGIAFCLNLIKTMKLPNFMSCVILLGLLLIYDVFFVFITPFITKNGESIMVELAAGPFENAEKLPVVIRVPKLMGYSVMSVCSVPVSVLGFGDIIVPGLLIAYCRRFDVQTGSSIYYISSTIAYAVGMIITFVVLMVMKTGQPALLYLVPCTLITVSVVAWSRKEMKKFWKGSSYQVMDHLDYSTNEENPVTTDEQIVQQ
Procedure: CD74/p8 Mouse Whole Blood Assay: Flow Cytometry Format
Mouse whole blood Balb/c mice (sodium citrate) was ordered by Bioreclamation LLC; USA. The blood was used the next day upon receipt (stored at 4° C.). 100 μL blood were transferred in 96 well format plate, where compounds, an 11 point dilutions down from 30 μM, to be tested were previously deposited. The plate was incubated for 5 h in the incubator at 37° C., 5% CO2 under continuous motion. After the incubation the blood was diluted with RBC Lysis Buffer (Amined; Cat. Nr 3-13F00-H or BD; Cat. Nr 555899). The solution was mixed by pipetting and incubated 10 min in the 37° C. incubator. The white blood cells were sedimented for 3 min at 2000 rpm. After removing the supernatant the cell pellet was resuspended and washed twice in RCB Buffer and kept≈ 5 min at room temperature, followed by a centrifugation for 2 min at 2000 rpm. The cell pellet was then resuspend in D-PBS and centrifuged twice. Finally, the cells were taken up in of D-PBS/0.5% inactivated fetal bovine serum/2 mM EDTA. The cell suspension was treated with Live/Dead fixable stain (Life Technologies, >470 nm version), B cells were identified by surface staining with an anti-B220 antibody coupled to APC fluorofor. After staining, the cells were extensively washed with PBS. The cells were permeabilized and fixed in FACS lysing buffer; (BD; #349202, dil 1:10 in water) and labelled with an anti CD74, FITC labelled antibody, washed once more with diluted FACS lysing buffer and spin down. The cell pellet was washed with D-PBS/0.5% inactivated fetal bovine serum/2 mM EDTA and PBS prior to the analysis in a flow cytometer. The compound concentrations were plotted against the intensity (medium fluorescence intensity) of the CD74 signal on the gated life B cell and IC50 were determined by fitting data for a 11 concentrations dose response.

human SPPL2a [2] = biological target: T1, human SPPL2a; test: Sppl2a RGA (reporter gene assay) in HEK293 cells; parameters: expressed in transfected cells; host or cells: HEK293 (transient); details: NT-TNF-VP16-Gal4 substrate, Gal4-luciferase reporter, 24 h
How it was run: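 Cleavage of a membrane-bound TNF N-terminal–VP16-Gal4 substrate drives Gal4-luciferase expression in transiently transfected HEK293 cells also expressing human SPPL2a. Compounds incubated 24 h, 37 °C, 5% CO2; luminescence read, normalized and plotted against concentration for IC50.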

| SMILES | IC50 (human SPPL2a [1]) | IC50 (Sppl2a CD74) | IC50 (human SPPL2a [2]) |
| --- | --- | --- | --- |
| CC[C@H](CNC(=O)c1sc(C(=O)NCC(F)F)nc1C)C(=O)N[C@@H]1C(=O)N2CCCN2Cc2ccccc21 [Example 8, N^2-(2,2-Difluoroethyl)-4-methyl-N^5-((R)-2-(((S)-11-oxo-2,3,10,11-tetrahydro-1H,5H-benzo[d]pyrazolo [1,2-a][1,2]diazepin-10-yl)carbamoyl)butyl) thiazole-2,5-dicarboxamide] | 3 nM | 2430 nM | 4 nM |
| CNC(=O)c1nc(C)c(C(=O)NC[C@H](C(=O)N[C@@H]2C(=O)N3CCCN3Cc3ccccc32)C2CC2)s1 [Example 9, N^5-((R)-2-Cyclopropyl-3-oxo-3-(((S)-11-oxo-2,3,10,11-tetrahydro-1H,5H-benzo[d]pyrazolo [1,2-a][1,2]diazepin-10-yl)amino)propyl)-N^2,4-dimethylthiazole-2,5-dicarboxamide] | 3 nM | 157 nM | 4 nM |
| CCNC(=O)c1nc(C)c(C(=O)NC[C@@H](CC)C(=O)N[C@@H]2C(=O)N3CCCN3Cc3ccccc32)s1 [Example 10, N^2-Ethyl-4-methyl-N^5-((R)-2-(((S)-11-oxo-2,3,10,11-tetrahydro-1H,5H-benzo[d]pyrazolo [1,2-a][1,2]diazepin-10-yl)carbamoyl)butyl) thiazole-2,5-dicarboxamide] | 4 nM | 289 nM | 5 nM |
| CCNC(=O)c1nc(C)c(C(=O)NC[C@H](C(=O)N[C@@H]2C(=O)N3CCCN3Cc3ccccc32)C2CC2)s1 [Example 12, N^5-((R)-2-Cyclopropyl-3-oxo-3-(((S)-11-oxo-2,3,10,11-tetrahydro-1H,5H-benzo[d]pyrazolo [1,2-a][1,2]diazepin-10-yl)amino)propyl)-N^2-ethyl-4-methylthiazole-2,5-dicarboxamide] | 5 nM | 280 nM | 4 nM |
| CC[C@H](CNC(=O)c1sc(C(=O)NC)nc1C)C(=O)N[C@@H]1C(=O)N2CCCN2Cc2ccccc21 [Example 13, N^2,4-Dimethyl-N^5-((R)-2-(((S)-11-oxo-2,3,10,11-tetrahydro-1H,5H-benzo[d]pyrazolo [1,2-a][1,2]diazepin-10-yl)carbamoyl)butyl) thiazole-2,5-dicarboxamide] | 6 nM | 161 nM | 8 nM |
| CCNC(=O)c1nc(C)c(C(=O)NC[C@@H](C)C(=O)N[C@@H]2C(=O)N3CCCN3Cc3ccccc32)s1 [Example 16, N^2-Ethyl-4-methyl-N^5-((R)-2-methyl-3-oxo-3-(((S)-11-oxo-2,3,10,11-tetrahydro-1H,5H-benzo[d]pyrazolo [1,2-a][1,2]diazepin-10-yl)amino)propyl) thiazole-2,5-dicarboxamide] | 11 nM | 659 nM | 8 nM |
| CC[C@H](CNC(=O)c1c(C)noc1C(F)(F)F)C(=O)N[C@@H]1C(=O)N2CCCN2Cc2ccccc21 [Example 17, 3-Methyl-N-((R)-2-(((5)-11-oxo-2,3,10,11-tetrahydro-1H,5H-benzo[d]pyrazolo [1,2-a][1,2]diazepin-10-yl)carbamoyl)butyl)-5-(trifluoromethyl) isoxazole-4-carboxamide] | 11 nM | 2350 nM | 5 nM |
| Cc1cc(-c2nc(C)c(C(=O)NC[C@@H](C)C(=O)N[C@@H]3C(=O)N4CCCN4Cc4ccccc43)s2)on1 [Example 23, 4-Methyl-N-((R)-2-methyl-3-oxo-3-(((S)-11-oxo-2,3,10,11-tetrahydro-1H,5H-benzo[d]pyrazolo [1,2-a][1,2]diazepin-10-yl)amino)propyl)-2-(3-methylisoxazol-5-yl)thiazole-5-carboxamide] | 16 nM | 992 nM | 21 nM |

Second part, the molecule after the results:

| IC50 (human SPPL2a [1]) | IC50 (Sppl2a CD74) | IC50 (human SPPL2a [2]) | SMILES |
| --- | --- | --- | --- |
| 4 nM | 95 nM | 3 nM | CNC(=O)c1nc(C)c(C(=O)NC[C@H](C(=O)N[C@@H]2C(=O)N3CCCN3Cc3ccccc32)C(F)(F)F)s1 [Example 11, N^2,4-Dimethyl-N^5-((R)-3,3,3-trifluoro-2-(((S)-11-oxo-2,3,10,11-tetrahydro-1H,5H-benzo[d]pyrazolo [1,2-a][1,2]diazepin-10-yl)carbamoyl)pro-pyl)thiazole-2,5-dicarboxamide] |
| 7 nM | 269 nM | 3 nM | Cc1nc(C(=O)NC(C)C)sc1C(=O)NC[C@H](C(=O)N[C@@H]1C(=O)N2CCCN2Cc2ccccc21)C(F)(F)F [Example 14, N^2-Isopropyl-4-methyl-N^5-((R)-3,3,3-trifluoro-2-(((S)-11-oxo-2,3,10,11-tetrahydro-1H,5H-benzo[d]pyrazolo [1,2-a][1,2]diazepin-10-yl)carbamoyl)pro-pyl)thiazole-2,5-dicarboxamide] |
| 12 nM | 819 nM | 6 nM | CC[C@H](CNC(=O)c1sc(C(=O)NC(C)C)nc1C)C(=O)N[C@@H]1C(=O)N2CCCN2Cc2ccccc21 [Example 19, N^2-Isopropyl-4-methyl-N^5-((R)-2-(((S)-11-oxo-2,3,10,11-tetrahydro-1H,5H-benzo[d]pyrazolo [1,2-a][1,2]diazepin-10-yl)carbamoyl)butyl) thiazole-2,5-dicarboxamide] |
| 13 nM | 5940 nM | 7 nM | Cc1nc(C(=O)NCC(F)F)sc1C(=O)NC[C@@H](C)C(=O)N[C@@H]1C(=O)N2CCCN2Cc2ccccc21 [Example 21, N^2-(2,2-Difluoroethyl)-4-methyl-N^5-((R)-2-methyl-3-oxo-3-(((S)-11-oxo-2,3,10,11-tetrahydro-1H,5H-benzo[d]pyrazolo [1,2-a][1,2]diazepin-10-yl)amino)propyl) thiazole-2,5-dicarboxamide] |
| 14 nM | 3000 nM | 12 nM | CC(C)NC(=O)c1nc(Cl)c(C(=O)NC[C@@H](C)C(=O)N[C@@H]2C(=O)N3CCCN3Cc3ccccc32)s1 [Example 22, 4-Chloro-N^2-isopropyl-N^5-((R)-2-methyl-3-oxo-3-(((S)-11-oxo-2,3,10,11-tetrahydro-1H,5H-benzo[d]pyrazolo [1,2-a][1,2]diazepin-10-yl)amino)propyl) thiazole-2,5-dicarboxamide] |
| 21 nM | 1660 nM | 33 nM | Cc1nc(C(=O)NC(C)C)sc1C(=O)NC[C@@H](C)C(=O)N[C@@H]1C(=O)N2CCCN2Cc2ccccc21 [Example 24, N^2-Isopropyl-4-methyl-N^5-((R)-2-methyl-3-oxo-3-(((S)-11-oxo-2,3,10,11-tetrahydro-1H,5H-benzo[d]pyrazolo [1,2-a][1,2]diazepin-10-yl)amino)propyl) thiazole-2,5-dicarboxamide] |
